Drawing on ChEMBL document CHEMBL1151696 (Bioorg Med Chem, 2008), this text covers Activity and IC50 for 18 molecules.

In test [1] the test system is Mammalian orthoreovirus 1. It is filed as functional, organism-based.
The next test deals with Human alphaherpesvirus 1. It is filed as functional, organism-based.
The target in test [2] is Glutamate NMDA receptor. The test is described as follows: Antagonist activity at NMDA receptor in cerebellar granule neurons assessed as inhibition of glutamate-induced increase in intracellular calcium concentration by fluorometric assay. The test is classed as functional, cell-based. (Calcium flux is commonly read through the fluorescence of an indicator in the cells.)

The target of test [3] is Glutamate NMDA receptor. Put plainly: Antagonist activity at NMDA receptor in cerebellar granule neurons assessed as inhibition of NMDA-induced increase in intracellular calcium concentration by fluorometric assay. It is filed as functional, cell-based.
Another test has as its system Human alphaherpesvirus 2. It is filed as functional, organism-based.
In the next test the test system is Feline coronavirus. It is filed as functional, organism-based.
The subject of a further test is Human respirovirus 3. It is filed as functional, organism-based.
The test system of test [4] is Respiratory syncytial virus. The test is classed as functional, organism-based.
Test [5] concerns Vesicular stomatitis virus. The test is classed as functional, organism-based.
Another test relates to Sindbis virus. The test is classed as functional, organism-based.
Another test concerns Punta Toro virus. It is filed as functional, organism-based.
Another test deals with Coxsackievirus B4. It is filed as functional, organism-based.
Another test is filed under the species Rattus norvegicus. Put plainly: Inhibition of [3H]dopamine uptake in Wistar rat striatum synaptosomes at 100 uM by scintillation spectrometry. The test is classed as functional, subcellular. Further details: scale not given: the % may be the effect or the level left.

The source made the active and inactive calls. No cut-off for these calls is given here. Where only a bound is given, the exact number is not on record here.

For the molecule `CN(Cc1ccccc1)C12CC3CC(CC1C3)C2`, the result (in test [1]; in the test with Human alphaherpesvirus 1; with Human alphaherpesvirus 2; with Feline coronavirus; with Human respirovirus 3; in [4]) was inactive. Moreover, the result (in test [5]; with Sindbis virus; with Punta Toro virus; with Coxsackievirus B4) was inactive. For the same molecule, the half-inhibitory concentration (IC50) (in general, the concentration that gives 50% inhibition) is > 500 µM at Glutamate NMDA receptor [2] and 36 µM on Glutamate NMDA receptor [3]. In the test filed under Rattus norvegicus, this molecule yielded an Activity of 47.2%.

Consider `N=C(N)NCC12CC3CC(CC1C3)C2`, for which the outcome (in [1]; in the test with Human alphaherpesvirus 1; with Human alphaherpesvirus 2; in the test with Feline coronavirus; in the test with Human respirovirus 3; in test [4]) was inactive. Moreover, the outcome (in [5]; in the test with Sindbis virus; in the test with Punta Toro virus; in the test with Coxsackievirus B4) was inactive. The same molecule returned an Activity in the test filed under Rattus norvegicus of 119%.

As to `Fc1ccc(CNC23CC4CC(CC2C4)C3)cc1`, the outcome (in test [1]; in the test on Human alphaherpesvirus 1; in the test on Human alphaherpesvirus 2; in the test on Feline coronavirus; in the test on Human respirovirus 3; in [4]) was inactive. Further, the result (in test [5]; in the test on Sindbis virus; in the test on Punta Toro virus; in the test with Coxsackievirus B4) was inactive. Moreover, the IC50 at Glutamate NMDA receptor [2] and on Glutamate NMDA receptor [3] was > 200 µM in each case. The molecule also came in with an Activity in the test filed under Rattus norvegicus of 81.1%.

In the case of `c1ccc(CNC23CC4CC(CC2C4)C3)cc1`, the outcome (in test [1]; with Human alphaherpesvirus 1; in the test on Human alphaherpesvirus 2; in the test with Feline coronavirus; in the test with Human respirovirus 3; in test [4]) was inactive. The outcome (in [5]; in the test with Sindbis virus; in the test on Punta Toro virus; in the test on Coxsackievirus B4) was inactive. Also, the concentration for half-maximal inhibition (IC50) on Glutamate NMDA receptor [2] and at Glutamate NMDA receptor [3] was > 200 µM throughout. The molecule further gave an Activity in the test listed under Rattus norvegicus of 31.7%.

As to `COc1ccc(CNC23CC4CC(CC2C4)C3)cc1`, the outcome (in test [1]; in the test with Human alphaherpesvirus 1; in the test with Human alphaherpesvirus 2; in the test on Feline coronavirus; in the test on Human respirovirus 3; in test [4]) was inactive. Besides, the outcome (in test [5]; in the test with Sindbis virus; with Punta Toro virus; with Coxsackievirus B4) was inactive. Besides, the concentration for half-maximal inhibition (IC50) on Glutamate NMDA receptor [2] and at Glutamate NMDA receptor [3] was > 200 µM each time. This molecule also displayed an Activity in the test filed under Rattus norvegicus of 63.9%.

For `NC(N)=NCC12CC3CC(CC1C3)C2`, the IC50 was found to be 453 µM on Glutamate NMDA receptor [2] and 25 µM on Glutamate NMDA receptor [3].

On to `CN(C)C12CC3CC(CC1C3)C2`, for which the result (in test [1]; in the test with Human alphaherpesvirus 1; in the test on Human alphaherpesvirus 2; in the test with Feline coronavirus; in the test with Human respirovirus 3; in [4]) was inactive. Besides, the outcome (in [5]; with Sindbis virus; in the test with Punta Toro virus; with Coxsackievirus B4) was inactive. Further, the values for the IC50 at Glutamate NMDA receptor [2] and on Glutamate NMDA receptor [3] were > 500 µM and 173 µM, respectively. For the same molecule, the Activity in the test listed under Rattus norvegicus turned out to be 71.3%.

As for `CC12CC3CC1(C)CC3(CN1CCCCC1)C2`, the outcome (in test [1]; with Human alphaherpesvirus 1; with Human alphaherpesvirus 2; in the test with Feline coronavirus; with Human respirovirus 3; in test [4]) was inactive. Moreover, the outcome (in test [5]; with Sindbis virus; in the test with Punta Toro virus; in the test on Coxsackievirus B4) was inactive. Besides, the IC50 on Glutamate NMDA receptor [2] and on Glutamate NMDA receptor [3] was > 200 µM in each case. Further, the Activity in the test filed under Rattus norvegicus was determined as 39.8%.

Consider `CNC12CC3CC(CC1C3)C2`, for which the outcome (in test [1]; in the test on Human alphaherpesvirus 1; with Human alphaherpesvirus 2; with Feline coronavirus; in the test on Human respirovirus 3; in test [4]) was inactive. Further, the result (in [5]; with Sindbis virus; with Punta Toro virus; with Coxsackievirus B4) was inactive. The IC50 on Glutamate NMDA receptor [2] came to 205 µM; on Glutamate NMDA receptor [3] it was 65 µM. Further, the Activity in the test filed under Rattus norvegicus was found to be 65.2%.

On to `CN(C)CC12CC3CC(CC1C3)C2`, for which the result (in test [1]; in the test with Human alphaherpesvirus 1; in the test on Human alphaherpesvirus 2; with Feline coronavirus; with Human respirovirus 3; in [4]) was inactive. Further, the result (in test [5]; in the test on Sindbis virus; with Punta Toro virus; in the test with Coxsackievirus B4) was inactive. Besides, the IC50 at Glutamate NMDA receptor [2] and at Glutamate NMDA receptor [3] was > 200 µM in each case. Besides, the Activity in the test filed under Rattus norvegicus was 62.5%.

Regarding `CNCC12CC3CC(CC1C3)C2`, the outcome (in test [1]; in the test on Human alphaherpesvirus 1; in the test on Human alphaherpesvirus 2; in the test with Feline coronavirus; in the test with Human respirovirus 3; in [4]) was inactive. Moreover, the result (in [5]; in the test with Sindbis virus; with Punta Toro virus; in the test on Coxsackievirus B4) was inactive. Also, the IC50 was > 500 µM at Glutamate NMDA receptor [2] and 71 µM on Glutamate NMDA receptor [3]. This molecule came in with an Activity in the test listed under Rattus norvegicus of 76.3%.

As for `CC12CC3CC1(C)CC3(NCc1cccs1)C2`, the result (in test [1]; in the test on Human alphaherpesvirus 1; in the test on Human alphaherpesvirus 2; in the test with Feline coronavirus; in the test on Human respirovirus 3; in test [4]) was inactive. Also, the result (in [5]; in the test on Sindbis virus; in the test on Punta Toro virus; with Coxsackievirus B4) was inactive. The values for the IC50 at Glutamate NMDA receptor [2] and on Glutamate NMDA receptor [3] were 204 µM and 80 µM, respectively.

Regarding `CN(C)CC12CC3(C)CC1CC3(C)C2`, the outcome (in test [1]; with Human alphaherpesvirus 1; in the test on Human alphaherpesvirus 2; with Feline coronavirus; in the test with Human respirovirus 3; in test [4]) was inactive. The outcome (in [5]; in the test with Sindbis virus; with Punta Toro virus; with Coxsackievirus B4) was inactive. Further, the IC50 on Glutamate NMDA receptor [2] and on Glutamate NMDA receptor [3] was > 200 µM throughout.

For the molecule `CNC12CC3(C)CC1CC3(C)C2`, the result (in test [1]; with Human alphaherpesvirus 1; in the test with Human alphaherpesvirus 2; in the test on Feline coronavirus; with Human respirovirus 3; in test [4]) was inactive. The outcome (in [5]; in the test with Sindbis virus; in the test on Punta Toro virus; with Coxsackievirus B4) was inactive. Moreover, at Glutamate NMDA receptor [3], the IC50 was determined as 35 µM. For the same molecule, in the test filed under Rattus norvegicus, the Activity came to 74.6%.

Molecule `CC12CC3CC(C)(C1)CC(N)(C3)C2` yielded an Activity in the test filed under Rattus norvegicus of 53.7%.

With `CN(Cc1ccccc1)C12CC3(C)CC1CC3(C)C2`, the outcome (in [1]; with Human alphaherpesvirus 1; in the test on Human alphaherpesvirus 2; with Feline coronavirus; in the test on Human respirovirus 3; in test [4]) was inactive. Also, the outcome (in test [5]; in the test with Sindbis virus; in the test with Punta Toro virus; in the test on Coxsackievirus B4) was inactive. In addition, the IC50 on Glutamate NMDA receptor [2] and on Glutamate NMDA receptor [3] was > 200 µM each time.

`CC12CC3CC1(C)CC3(CNC(=N)N)C2`: the result (in [1]; in the test with Human alphaherpesvirus 1; with Human alphaherpesvirus 2; in the test on Feline coronavirus; in the test on Human respirovirus 3; in test [4]) was inactive. In addition, the result (in [5]; in the test with Sindbis virus; in the test with Punta Toro virus; in the test on Coxsackievirus B4) was inactive. The IC50 stood at 104 µM on Glutamate NMDA receptor [2] and 7.1 µM at Glutamate NMDA receptor [3].

On to `CC12CC3CC1(C)CC3(NCc1ccccc1)C2`, for which the outcome (in [1]; in the test on Human alphaherpesvirus 1; in the test with Human alphaherpesvirus 2; in the test on Feline coronavirus; in the test with Human respirovirus 3; in [4]) was inactive. Besides, the result (in [5]; in the test on Sindbis virus; in the test on Punta Toro virus; in the test with Coxsackievirus B4) was inactive. The IC50 was 143 µM at Glutamate NMDA receptor [2] and 70 µM on Glutamate NMDA receptor [3].
